These results are taken from patent publication US11230534B2, “KDM1A inhibitors for the treatment of disease” (Imago Biosciences, Inc., priority 2015, dated 2022).

What all share (type): physicochemical
Data set [1] can be described thus: Chemical stability by HPLC purity re-test / degradation. As to conditions: for Initial Purity: HPLC 1-24 hours post-synthesis. Here is the method:
Various lots of Example 1 were analyzed by HPLC shortly after synthesis (analysis from 1-24 hours post-synthesis) and re-tested for purity a unit of time later.
Purity analysis was performed on an Agilent HP1100 series system equipped with a diode array detector and using ChemStation software vB.04.03 using one of the methods detailed below: […]

Data set [2] in a line: Storage at elevated temperature and humidity (40° C./75% RH, 25° C./95-97% RH; XRPD, HPLC). To be noted: for change of form under temperature and humidity conditions: conclusion; for Storage at 40° C. and 75% RH and 25° C. and 95% RH / exposure to humidity (form, purity): scaled-up salts. Here is the method: Example 1 was dissolved in solvent (240 mg in 2.4 mL, 10 volumes) to form stock solutions and then dispensed into vials (400 μL/˜40 mg per vial). The solutions were treated with 1 equivalent of counterions (for hydrochloric acid (HCl), sulfuric acid (H2SO4 or “SO4”), methanesulfonic acid (mesylate or “MSA”), phosphoric acid (H3PO4 or “PHOA”), and L-tartaric acid (TAR), 77 μL for 1M; for fumaric acid (FUA), 154 μL for 0.5M) using stock solutions. The solutions/suspensions were then cooled down to 0° C. at 0.2° C./min and stirred at 0° C. overnight. The resulting solids were analyzed by XRPD and those that were amorphous or poorly crystalline were then matured for 5 days. If after cooling to 0° C. a clear solution or gum was obtained, the mother liquors were removed from the vials, split in two and anti-solvent (MTBE or heptane, 400 μl) added to each of the aliquots. After anti-solvent addition, the samples were matured for 5 days. After maturation, clear solutions and gums were allowed to evaporate at ambient conditions. Suspensions were filtered, air-dried and characterized by XRPD. Any resulting crystalline solids were characterized by high resolution XRPD, 1H NMR, HPLC and one week storage at 40° C. and 75% RH.
Example 1 was dissolved in methyethyl ketone (MEK) or acetonitrile (MeCN) (20 mg in 200 μl, 10 vol) at ambient conditions. The solutions were then heated to 50° C., treated with 1.1 or 2.1 eq of acid and stirred at this temperature for 1 hour. The resulting solutions/suspensions were then cooled down to 5° C. at 0.1° C./min and held overnight. Any solids obtained were analyzed by XRPD and those that were amorphous or poorly crystalline were then matured between 50° C./ambient on an 8-hour cycle. Any clear solutions were left to evaporate slowly at ambient conditions. If the samples evaporated to form gums, these were dissolved in IPA (10 vol, 200 μL) and then matured. Any solutions with gums present were also matured between 50° C./ambient on an 8 hour cycle. Any resulting crystalline solids were characterized by high resolution XRPD, NMR, HPLC, IC (for inorganic counter-ions) and one week storage at 40° C. and 75% RH.
In the first experiment, Example 1 was dissolved in MEK or MeCN (100 mg in 1 mL, 10 vol) at ambient conditions. The solutions were then heated to 50° C., treated with 2.1 eq of p-toluene sulfonic acid monohydrate (1M in THF, 405 μL) and stirred constant temperature for 1 hour. The resulting suspensions were then cooled down to 5° C. at 0.1° C./min overnight. Any solids obtained were analyzed by XRPD and those that were amorphous or weakly crystalline were then matured between 50° C./ambient on an 8-hour cycle for 7 days. Any resulting crystalline solids were characterized by high resolution XRPD, ^1H NMR, HPLC, TGA, DSC and one week storage at 40° C. and 75% RH. […] However, after further maturation to try and improve the crystallinity, both tosylate salts were consistent with pTSA Form 2 by XRPD. […]
(§1) A preliminary polymorphism assessment was carried out on the three most crystalline salt forms, the mono tartrate (TAR Form 1), mono oxalate (OXA Form 1), and bis tosylate (pTSA Form 2). Each salt was treated with the relevant solvent (10 vol, 30 mg in 300 μL) at 25° C. The samples were stirred for 10 minutes and then heated to 50° C. for 1 hour. The resulting suspensions were matured for 24 hours and any resulting solutions were allowed to evaporate slowly. After maturation or evaporation, the solids were filtered and air-dried before analysis by XRPD.
Amorphous bis tosylate was suspended in the solvent system below (30 mg in 150 μl) at ambient conditions. The suspensions were shaken in the maturation chamber between ambient and 50° C. for 19 h (8 h cycles), then allowed to stand at ambient conditions for 10 min. An aliquot of the solid was air dried and analyzed by XRPD and then placed for 1 week at 40° C./75% RH and re-analyzed. […]

A short description of data set [3]: Gravimetric Vapour Sorption (GVS). To be noted: for hygroscopicity: conclusion; for GVS water uptake: full cycle, 25° C. Here is the method:
Sorption isotherms were obtained using a SMS DVS Intrinsic moisture sorption analyzer, controlled by DVS Intrinsic Control software v1.0.1.2 (or v 1.0.1.3). The sample temperature was maintained at 25° C. by the instrument controls. The humidity was controlled by mixing streams of dry and wet nitrogen, with a total flow rate of 200 mL/min The relative humidity was measured by a calibrated Rotronic probe (dynamic range of 1.0-100% RH), located near the sample. The weight change, (mass relaxation) of the sample as a function of % RH was constantly monitored by the microbalance (accuracy ±0.005 mg).
Typically 5-20 mg of sample was placed in a tared mesh stainless steel basket under ambient conditions. The sample was loaded and unloaded at 40% RH and 25° C. (typical room conditions). A moisture sorption isotherm was performed as outlined below (2 scans giving 1 complete cycle). The standard isotherm was performed at 25° C. at 10% RH intervals over a 0-90% RH range. Data analysis was carried out using Microsoft Excel using DVS Analysis Suite v6.2 (or 6.1 or 6.0).

The nature of data set [4]: Polymorphism assessment (slurry, maturation, evaporation; XRPD). As to conditions: 10 solvents, maturation 24 hours. Here is the method: as §1
Amorphous bis tosylate was suspended in the solvent system below (30 mg in 150 μl) at ambient conditions. The suspensions were shaken in the maturation chamber between ambient and 50° C. for 19 h (8 h cycles), then allowed to stand at ambient conditions for 10 min. An aliquot of the solid was air dried and analyzed by XRPD and then placed for 1 week at 40° C./75% RH and re-analyzed. If solutions were recovered, the solvents were allowed to evaporate at ambient conditions and the residues were initially analyzed by XRPD.
(8 h cycles). After 4 days the solids were filtered and air dried. Solids obtained were initially analyzed by XRPD. Maturation in n-heptane, diethyl ether, ethyl acetate, isopropyl acetate, methylisobutyl ketone, 2-propanol, methylethyl ketone, acetone, tert-butylmethyl ether, cyclohexane, 1,4-dioxane, toluene, chloroform, 1,2-dimethoxyethane, tetrahydrofuran, acetonitrile, nitromethane, and 2-propanol:water 95:5 yielded filtered solids of Form 2.
Supernatants from the maturation experiments and solutions from cooling were allowed to slowly evaporate at ambient conditions. The residues were analyzed by XRPD. Slow evaporation from the following supernatants yielded: dimethyl sulfoxide, oil; water, oil; N,N-dimethylformamide, gum; N-methylpyrrolidone, oil; tetrahydrofuran:water 95:5, gum; and acetone:water 95:5 gum. Solutions obtained after the solubility assessment were placed in a fridge (4° C.) for 2 days and in a freezer (−20° C.) for another 2 days. No solids were recovered. […]

The nature of data set [5]: Variable temperature XRPD (VT-XRPD). Here is the method: Samples run under ambient conditions were prepared as flat plate specimens using powder as received without grinding. Approximately 1-2 mg of the sample was lightly pressed on a glass slide to obtain a flat surface. Samples run under non-ambient conditions were mounted on a silicon wafer with heat-conducting compound. The sample was then heated to the appropriate temperature at 20° C./min and subsequently held isothermally for 1 minute before data collection was initiated.

As for `CN1CCN(C(=O)C(CN[C@@H]2C[C@H]2c2ccc(F)cc2)NC(=O)c2ccc(-n3ccnn3)cc2)CC1` (stereo partly drawn) [Example 1, N-[3-[[(1R,2S)-2-(4-Fluorophenyl)cyclopropyl]amino]-1-(4-methylpiperazin-1-yl)-1-oxopropan-2-yl]-4-(1H-1,2,3-triazol-1-yl)benzamide], the “Re-Test Purity” value is listed as 82% in data set [1] (Lot 1, free base, 49 days between tests) and 72% in data set [1] (Lot 2, free base, 16 days between tests). Also, the “Initial Purity” value in data set [1] (Lot 1, free base) is on record as 93%; in data set [1] (Lot 2, free base) it was 81%. Besides, the “stability of free base form” value in data set [1] (ambient conditions) is “degrades at ambient conditions over time”. The “behaviour of free base form at high humidity” value in data set [2] (high humidity) is listed as “deliquesces when subjected to high humidity”.
In the case of `O=C(O)C(O)C(O)C(=O)O` (stereo not drawn) [tartrate], the “loss in purity on storage” value in data set [2] (40° C. and 75% RH) is above 30%. Besides, in data set [2], the “change of form under temperature and humidity conditions” value is “change under both temperature and humidity conditions”; the “Storage at 40° C. and 75% RH and 25° C. and 95% RH / exposure to humidity (form, purity)” value was “changes in crystallinity and form”. Further, the “Storage at 40° C. and 75% RH (form by XRPD)” value in data set [2] (one week) was “no change in form was observed”. In addition, in data set [3], the “form by XRPD post GVS” value is “decreased crystallinity and a change in form”; the hygroscopicity result was “highly hygroscopic”; the GVS water uptake is on record as around 30 % w/w. Besides, in data set [4], the “change in crystalline form in polymorphism assessment” value (from here on “change in crystalline form”) is recorded as “five of the tartrate samples changed in form”.
On to oxalate, for which, in data set [2], the “change of form under temperature and humidity conditions” value was “changed form under humidity, but not temperature conditions”; the “Storage at 40° C. and 75% RH and 25° C. and 95% RH / exposure to humidity (form, purity)” value is recorded as “changed the form of the material to OXA Form 2”. Further, in data set [3], the “form by XRPD post GVS” value is “change in form to OXA Form 2”, the hygroscopicity result is recorded as “hygroscopic” and the GVS water uptake is around 12 % w/w. Further, the “temperature up to which crystalline form is unchanged (VT-XRPD)” value in data set [5] was 140 °C. In data set [4], the “change in crystalline form” value was “only one change in form was observed”.
On to tosylate, for which the “chemical stability relative to free form” value in data set [2] (limited stability studies) is “improved chemical stability over the free form”. Moreover, the “Storage at 40° C. and 75% RH and 25° C. and 95% RH / exposure to humidity (form, purity)” value in data set [2] is listed as “no changes in the form or purity”. Also, in data set [3], the “form by XRPD post GVS” value is “No change in form was observed” and the GVS water uptake is around 5 % w/w. In addition, the “temperature up to which crystalline form is unchanged (VT-XRPD)” value in data set [5] stood at 170 °C. Also, the “change in crystalline form” value in data set [4] was “no change in crystalline form was noted in 9”.
